Where two headings read alike, the source gives them in different places.
Experiments:
[1] = system: Pseudomonas aeruginosa efflux+ (MB9798), IMP-1; type: cell-based; design: Concentration of metallo-β-lactamase inhibitor which restores susceptibility of efflux + (MB9798) strain to imipenem: unit not given here; conditions: C, D serine β-lactamase inhibitor closely related to relebactam; for P. aeruginosa expressing IMP-1, efflux + (MB9798) MITC95: concentration restoring susceptibility to imipenem at 2 μg/mL in the presence of a class A; for Concentration of metallo-β-lactamase inhibitor which restores susceptibility of efflux + (MB9798) strain to imipenem: imipenem at 2 μg/mL, in the presence of a class A
Summary of the method: (§1)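 Microbroth MIC tests in PAO1-background strains with fixed imipenem and/or ceftazidime, usually at the CLSI breakpoint, plus fixed class A/C β-lactamase inhibitor against AmpC. MBL inhibitor titrated; concentration restoring susceptibility recorded and compared as fold difference between efflux+ MB9798 and efflux− MB9799.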

[2] = system: Klebsiella pneumoniae expressing VIM-1 (IHMA599644); type: cell-based; conditions: for Klebsiella pneumoniae expressing VIM-1 (IHMA599644) MITC95: with imipenem 1 μg/ml, 95% inhibition of bacterial growth; for Klebsiella pneumoniae MITC95: VIM-1 strain IHMA599644, with imipenem 1 μg/ml, 95% inhibition of growth
Summary of the method: (§2)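 Growth by absorbance after 22–24 h at 35°C defined the read-out, with imipenem fixed at 1 μg/ml alongside compound. Inocula came from overnight blood-agar colonies at 35°C, resuspended in saline and diluted 1:100 in 1.1×CAMHB.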

[3] = system: Escherichia coli expressing NDM-1 (CLB30005, CLB30016); type: cell-based; conditions: with imipenem 1 μg/ml; for Escherichia coli expressing NDM-1 (CLB30016) MITC95: 95% inhibition of bacterial growth; for Escherichia coli MITC95: NDM-1 strain, 95% inhibition of growth
Summary of the method: as §2

[4] = system: Serratia marcescens expressing IMP-1 (CL5741); type: cell-based; conditions: for Serratia marcescens expressing IMP-1 (CL5741) MITC95: with imipenem 1 μg/ml, 95% inhibition of bacterial growth; for Serratia marcescens MITC95: IMP-1 strain CL5741, with imipenem 1 μg/ml, 95% inhibition of growth
Summary of the method: as §2

[5] = system: Pseudomonas aeruginosa efflux− (MB9799), IMP-1; type: cell-based; conditions: C, D serine β-lactamase inhibitor closely related to relebactam; for P. aeruginosa expressing IMP-1, efflux − (MB9799) MITC95: concentration restoring susceptibility to imipenem at 2 μg/mL in the presence of a class A; for Concentration of metallo-β-lactamase inhibitor which restores susceptibility of efflux − (MB9799) strain to imipenem: imipenem at 2 μg/mL, in the presence of a class A
Summary of the method: as §1

VIM-1 = VIM-1 (Pseudomonas aeruginosa (strain ATCC 15692 / DSM 22644 / CIP 104116 / JCM 14847 / LMG 12228 / 1C / PRS 101 / PAO1), UniProt A0A0F7KYQ8); test: biochemical; conditions: CCF2-FA substrate, 30 pM enzyme, 2 hours at 25° C.
Summary of the method: (§3)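 Class B activity is measured in the presence of compound by fluorescence with CCF2-FA after a 2-hour incubation at 25° C. IC50 is taken from a 4-parameter fit of semi-logarithmic dose-response data.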

NDM-1 = NDM-1 (Klebsiella pneumoniae, UniProt C7C422); test: biochemical; type: biochemical; conditions: fluorescence assay, CCF2-FA substrate, 1 pM enzyme, 2 hours at 25° C.; read-out: NDM-1 IC50
Chain of NDM-1 (C7C422 whole entry, looked up, species assumed): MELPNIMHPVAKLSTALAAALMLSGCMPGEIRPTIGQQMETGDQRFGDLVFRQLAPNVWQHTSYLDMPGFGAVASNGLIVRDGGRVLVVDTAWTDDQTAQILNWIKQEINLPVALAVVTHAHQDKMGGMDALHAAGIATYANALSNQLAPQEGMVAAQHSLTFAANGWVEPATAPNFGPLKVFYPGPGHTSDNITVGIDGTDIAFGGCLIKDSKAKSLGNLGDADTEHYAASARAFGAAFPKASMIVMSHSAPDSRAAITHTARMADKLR
Summary of the method: as §3

IMP-1 = IMP-1 (Serratia marcescens, UniProt P52699); test: biochemical; type: biochemical; conditions: fluorescence assay, CCF2-FA substrate, 2 pM enzyme, 2 hours at 25° C.; read-out: IMP-1 IC50
Chain of IMP-1 (P52699 whole entry, looked up, species assumed): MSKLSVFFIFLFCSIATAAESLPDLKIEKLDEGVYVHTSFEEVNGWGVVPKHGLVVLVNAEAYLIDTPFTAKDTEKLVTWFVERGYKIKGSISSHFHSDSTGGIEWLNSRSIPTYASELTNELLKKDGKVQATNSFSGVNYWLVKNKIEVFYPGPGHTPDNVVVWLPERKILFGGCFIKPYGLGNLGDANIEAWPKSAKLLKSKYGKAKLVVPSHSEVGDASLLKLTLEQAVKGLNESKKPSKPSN
Summary of the method: as §3

[6] = system: Pseudomonas aeruginosa MB9798 vs MB9799
Summary of the method: as §1

[7] = fluorescence assay, read-out: VIM-1 IC50
[8] = ratio MITC95 PA_9798/MITC95 PA_9799
[9] = fold difference between efflux+ (MB9798) and efflux− (MB9799) strains, imipenem at 2 μg/mL

Structure (SMILES)	P. aeruginosa expressing IMP-1, efflux + (MB9798) MITC95 [1]	Klebsiella pneumoniae expressing VIM-1 (IHMA599644) MITC95 [2]	Escherichia coli expressing NDM-1 (CLB30016) MITC95 [3]	Serratia marcescens expressing IMP-1 (CL5741) MITC95 [4]	P. aeruginosa expressing IMP-1, efflux − (MB9799) MITC95 [5]	IC50 (VIM-1; [7])	IC50 (NDM-1)	IC50 (IMP-1)	Efflux ratio [6, 8]	IC50 (VIM-1; VIM-1 IC50, fluorescence assay)	Klebsiella pneumoniae MITC95 [2]	Escherichia coli MITC95 [3]	Serratia marcescens MITC95 [4]	Concentration of metallo-β-lactamase inhibitor which restores susceptibility of efflux + (MB9798) strain to imipenem [1]	Concentration of metallo-β-lactamase inhibitor which restores susceptibility of efflux − (MB9799) strain to imipenem [5]	Efflux ratio [6, 9]
C[C@H](N)CC(=O)NS(=O)(=O)c1ccc(-c2cccc3[nH]c(N)nc23)c(-c2nn[nH]n2)c1S(N)(=O)=O [Example 208, (S)-3-amino-N-((4-(2-amino-1H-benzo[d]imidazol-4-yl)-2-sulfamoyl-3-(2H-tetrazol-5-yl)phenyl)sulfonyl)butanamide]	3.125 µM	6.25 µM	1.563 µM	3.125 µM	3.125 µM	1.23 nM	0.449 nM	3.12 nM	1.00	–	–	–	–	–	–	–
NCCNS(=O)(=O)c1ccc(-c2cccc3[nH]cnc23)c(-c2nn[nH]n2)c1S(N)(=O)=O [Example 199, N^1-(2-aminoethyl)-4-(1H-benzo[d]imidazol-4-yl)-3-(2H-tetrazol-5-yl)benzene-1,2-disulfonamide]	0.7813 µM	2.865 µM	1.042 µM	1.042 µM	1.432 µM	0.0471 nM	0.0257 nM	0.102 nM	0.55	–	–	–	–	–	–	–
Nc1nc2c(-c3ccc(S(=O)(=O)NC4CCNCC4)c(S(N)(=O)=O)c3-c3nnn[nH]3)cccc2s1 [Example 32, 4-(2-amino-1,3-benzothiazol-4-yl)-N1-piperidin-4-yl-3-(1H-tetrazol-5-yl)benzene-1,2-disulfonamide]	0.7813 µM	3.125 µM	6.25 µM	1.563 µM	1.563 µM	–	0.069 nM	0.34 nM	0.50	0.296 nM	–	–	–	–	–	–
C[C@H](CN)NS(=O)(=O)c1ccc(-c2cccc3[nH]c(CN)nc23)c(-c2nn[nH]n2)c1S(N)(=O)=O [Example 383, (R)-4-(2-(aminomethyl)-1H-benzo[d]imidazol-4-yl)-N1-(1-aminopropan-2-yl)-3-(2H-tetrazol-5-yl)benzene-1,2-disulfonamide]	0.7813 µM	–	–	–	0.7813 µM	0.102 nM	0.0568 nM	0.536 nM	1.00	–	1.563 µM	0.7813 µM	1.563 µM	–	–	–
NS(=O)(=O)c1c(S(=O)(=O)N[C@@H]2CCNC2)ccc(-c2cccc3[nH]nnc23)c1-c1nn[nH]n1 [Example 235, (R)-4-(1H-benzo[d][1,2,3]triazol-4-yl)-N^1-(pyrrolidin-3-yl)-3-(2H-tetrazol-5-yl)benzene-1,2-disulfonamide]	0.7813 µM	3.125 µM	1.563 µM	0.7813 µM	1.563 µM	–	0.0308 nM	0.44 nM	0.50	0.105 nM	–	–	–	–	–	–
CN(C)CC(F)(F)CNS(=O)(=O)c1ccc(-c2cccc3sc(N)nc23)c(-c2nnn[nH]2)c1S(N)(=O)=O [Example 16, 4-(2-amino-1,3-benzothiazol-4-yl)-N1-[3-(dimethylamino)-2,2-difluoropropyl]-3-(1H-tetrazol-5-yl)benzene-1,2-disulfonamide]	100 µM	25 µM	25 µM	12.5 µM	6.25 µM	0.461 nM	0.0921 nM	0.442 nM	16.00	–	–	–	–	–	–	–
N[C@@H]1CNC[C@@H]1NS(=O)(=O)c1ccc(-c2cnc3cc[nH]c3c2)c(-c2nn[nH]n2)c1S(N)(=O)=O [Example 326, N1-((3S,4R)-4-aminopyrrolidin-3-yl)-4-(1H-pyrrolo[3,2-b]pyridin-6-yl)-3-(2H-tetrazol-5-yl)benzene-1,2-disulfonamide]	1.563 µM	–	–	–	1.563 µM	–	0.0502 nM	0.65 nM	1.00	0.115 nM	1.563 µM	0.7813 µM	1.563 µM	–	–	–
Nc1nc2c(-c3ccc(S(=O)(=O)N[C@H]4CCNC4)c(S(N)(=O)=O)c3-c3nnn[nH]3)cccc2s1 [Example 60, 4-(2-amino-1,3-benzothiazol-4-yl)-N1-[(3S)-pyrrolidin-3-yl]-3-(1H-tetrazol-5-yl)benzene-1,2-disulfonamide]	0.7813 µM	3.125 µM	3.125 µM	1.563 µM	1.563 µM	0.236 nM	0.0765 nM	0.679 nM	0.50	–	–	–	–	–	–	–
Nc1ccc(-c2ccc(S(=O)(=O)NC3CNC3)c(S(N)(=O)=O)c2-c2nn[nH]n2)cn1 [Example 493, 4-(6-aminopyridin-3-yl)-N1-(azetidin-3-yl)-3-(2H-tetrazol-5-yl)benzene-1,2-disulfonamide]	–	–	–	–	–	0.179 nM	0.189 nM	0.403 nM	–	–	1.563 µM	0.3906 µM	0.3906 µM	0.3906	0.7813	0.50
NCCNc1ncccc1-c1ccc(S(=O)(=O)N[C@@H]2CCNC2)c(S(N)(=O)=O)c1-c1nn[nH]n1 [Example 459, (R)-4-(2-((2-Aminoethyl)amino)pyridin-3-yl)-N1-(pyrrolidin-3-yl)-3-(2H-tetrazol-5-yl)benzene-1,2-disulfonamide]	–	–	–	–	–	0.172 nM	1.17 nM	12.5 nM	–	–	1.563 µM	0.3906 µM	1.563 µM	3.125	1.563	2.00

From patent US10221163B2 (priority 2015, dated 2019)
